For ten compounds, MIC results are on record in patent US11691949B2, “Quinoline sulfonamide compounds and their use as antibacterial agents” (OTAGO INNOVATION LIMITED, priority 2017, dated 2023).

Type in all cases: cell-based
The test system of one test is S. aureus ATCC 6538. Put plainly: MIC by broth microdilution, S. aureus. The conditions noted are these: Staphylococcus aureus, read-out: S. aureus ATCC 6538 MIC. The gist of the method:
(§1)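 Overnight cultures diluted to ~5×10^5 cfu/mL final; S. aureus in TSB and CAMHB, E. coli in LB and CAMHB, zinc sulphate to 50 μM final as required; two-fold serial dilutions. MIC = lowest concentration with no growth by OD600 after 24 h, 37° C, 200 rpm. MBC by Miles-Misra drop-plate viability count.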

The next test relates to S. uberis ATCC 19436. Put plainly: MIC by broth microdilution, S. uberis. The conditions noted are these: Streptococcus uberis, read-out: S. uberis ATCC 19436 MIC. The gist of the method: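 The MIC against S. uberis ATCC 19436 was the lowest compound concentration showing no growth by OD600 after 24 h at 37° C. with 200 rpm shaking. Cultures grown overnight were adjusted to OD600 ~0.025 so wells held approximately 5×10^5 cfu/mL in THB. Two-fold dilution series were made at a final volume of 200 μl. Media and untreated controls were run in triplicate on each plate.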
For orientation: Dilution methods test growth across graded concentrations, often in twofold steps.

The next test has as its system E. coli ATCC 10596. Put plainly: MIC by broth microdilution, E. coli. The conditions noted are these: Escherichia coli, read-out: E. coli ATCC 10536 MIC. In short, it runs like this: as §1
[1] abbreviates: ATCC 10536 / ATCC 10596, No Zinc.
Where [2] appears, read: ATCC 10536 / ATCC 10596, Zinc (50 μM).

≈ marks a conversion by molar mass, not a printed value. Read-outs that look alike come from different tables or passages of the source. Bounds are passed on as bounds.

By MIC is commonly meant the smallest concentration in the dilution series that meets the test's criterion for growth inhibition.

In the case of `NC(=O)N/N=C/c1ccc2cccc(NS(=O)(=O)c3ccc(C(F)(F)F)cc3)c2n1` [ZDR118, (E)-2-((8-((4-(Trifluoromethyl)phenyl)sulfonamido)quinolin-2-yl)methylene)hydrazine-1-carboxamide], the minimum inhibitory concentration (MIC) in the test with S. aureus ATCC 6538 (ATCC6538, No Zinc) was 128 µg/mL (≈ 293 µM); in the test with S. aureus ATCC 6538 (ATCC6538, Zinc (50 μM)), 8 µg/mL (≈ 18.3 µM); with S. uberis ATCC 19436 (ATCC19436, No Zinc), 32 µg/mL (≈ 73.2 µM); with S. uberis ATCC 19436 (ATCC19436, Zinc (50 μM)), 2 µg/mL (≈ 4.57 µM); in the test with E. coli ATCC 10596 (setting [1]), greater than 256 µg/mL; in the test on E. coli ATCC 10596 (setting [2]), greater than 256 µg/mL.

For `CO/N=C/c1ccc2cccc(NS(=O)(=O)c3ccc(C(F)(F)F)cc3)c2n1` [ZDR126, (E)-N-(2-((Methoxyimino)methyl)quinolin-8-yl)-4-(trifluoromethyl)benzenesulfonamide], the MIC with S. aureus ATCC 6538 (ATCC6538, No Zinc) is greater than 256 µg/mL; in the test with S. aureus ATCC 6538 (ATCC6538, Zinc (50 μM)), greater than 256 µg/mL; in the test on S. uberis ATCC 19436 (ATCC19436, No Zinc) it was greater than 256 µg/mL; in the test with S. uberis ATCC 19436 (ATCC19436, Zinc (50 μM)), 0.125 µg/mL (≈ 0.305 µM); with E. coli ATCC 10596 (setting [1]) it was greater than 256 µg/mL; with E. coli ATCC 10596 (setting [2]), greater than 256 µg/mL.

As for `O=S(=O)(Nc1cccc2ccc(CNCCOCCO)nc12)c1ccc(C(F)(F)F)cc1` [ZDR129, N-(2-(((2-(2-Hydroxyethoxy)ethyl)amino)methyl)quinolin-8-yl)-4-(trifluoromethyl)benzenesulfonamide], the minimum inhibitory concentration (MIC) in the test with S. aureus ATCC 6538 (ATCC6538, No Zinc) is 32 µg/mL (≈ 68.2 µM); with S. aureus ATCC 6538 (ATCC6538, Zinc (50 μM)), 32 µg/mL (≈ 68.2 µM); with S. uberis ATCC 19436 (ATCC19436, No Zinc), 64 µg/mL (≈ 136 µM); with S. uberis ATCC 19436 (ATCC19436, Zinc (50 μM)), 1 µg/mL (≈ 2.13 µM); in the test with E. coli ATCC 10596 (setting [1]) it was 256 µg/mL (≈ 545 µM); in the test on E. coli ATCC 10596 (setting [2]), 256 µg/mL (≈ 545 µM).

As for `O=S(=O)(Nc1cccc2ccc(CNCCOCCOCCO)nc12)c1ccc(C(F)(F)F)cc1` [ZDR130, N-(2-(((2-(2-(2-Hydroxyethoxy)ethoxy)ethyl)amino)methyl)quinolin-8-yl)-4-(trifluoromethyl)benzenesulfonamide], the minimum inhibitory concentration (MIC) in the test with S. aureus ATCC 6538 (ATCC6538, No Zinc) was determined as 128 µg/mL (≈ 249 µM); in the test on S. aureus ATCC 6538 (ATCC6538, Zinc (50 μM)), 256 µg/mL (≈ 499 µM); in the test on S. uberis ATCC 19436 (ATCC19436, No Zinc) it was 64 µg/mL (≈ 125 µM); in the test with S. uberis ATCC 19436 (ATCC19436, Zinc (50 μM)) it was 1 µg/mL (≈ 1.95 µM); with E. coli ATCC 10596 (setting [1]), 256 µg/mL (≈ 499 µM); with E. coli ATCC 10596 (setting [2]) it was 256 µg/mL (≈ 499 µM).

With `COCCOCCNCc1ccc2cccc(NS(=O)(=O)c3ccc(C(F)(F)F)cc3)c2n1` [ZDR131, N-(2-(((2-(2-Methoxyethoxy)ethyl)amino)methyl)quinolin-8-yl)-4-(trifluoromethyl)benzenesulfonamide], the minimal inhibitory concentration (MIC) with S. aureus ATCC 6538 (ATCC6538, No Zinc) is 64 µg/mL (≈ 132 µM); in the test on S. aureus ATCC 6538 (ATCC6538, Zinc (50 μM)), 128 µg/mL (≈ 265 µM); in the test on S. uberis ATCC 19436 (ATCC19436, No Zinc), 64 µg/mL (≈ 132 µM); in the test on S. uberis ATCC 19436 (ATCC19436, Zinc (50 μM)) it was 1 µg/mL (≈ 2.07 µM); in the test on E. coli ATCC 10596 (setting [1]) it was 256 µg/mL (≈ 529 µM); in the test on E. coli ATCC 10596 (setting [2]) it was 256 µg/mL (≈ 529 µM).

For the compound `COCCOCCOCCNCc1ccc2cccc(NS(=O)(=O)c3ccc(C(F)(F)F)cc3)c2n1` [ZDR132, N-(2-(5,8,11-Trioxa-2-azadodecyl)quinolin-8-yl)-4-(trifluoromethyl)benzenesulfonamide], the MIC in the test with S. aureus ATCC 6538 (ATCC6538, No Zinc) was found to be 64 µg/mL (≈ 121 µM); with S. aureus ATCC 6538 (ATCC6538, Zinc (50 μM)) it was 256 µg/mL (≈ 485 µM); with S. uberis ATCC 19436 (ATCC19436, No Zinc), 64 µg/mL (≈ 121 µM); in the test with S. uberis ATCC 19436 (ATCC19436, Zinc (50 μM)) it was 1 µg/mL (≈ 1.9 µM); in the test with E. coli ATCC 10596 (setting [1]), 256 µg/mL (≈ 485 µM); in the test on E. coli ATCC 10596 (setting [2]), 256 µg/mL (≈ 485 µM).

As to `COCCNCc1ccc2cccc(NS(=O)(=O)c3ccc(C(F)(F)F)cc3)c2n1` [ZDR133, N-(2-(((2-Methoxyethyl)amino)methyl)quinolin-8-yl)-4-(trifluoromethyl)benzenesulfonamide], the minimal inhibitory concentration (MIC) in the test on S. aureus ATCC 6538 (ATCC6538, No Zinc) is 64 µg/mL (≈ 146 µM); in the test on S. aureus ATCC 6538 (ATCC6538, Zinc (50 μM)) it was 256 µg/mL (≈ 583 µM); in the test with S. uberis ATCC 19436 (ATCC19436, No Zinc), 64 µg/mL (≈ 146 µM); with S. uberis ATCC 19436 (ATCC19436, Zinc (50 μM)), 0.25 µg/mL (≈ 0.569 µM); in the test on E. coli ATCC 10596 (setting [1]), greater than 256 µg/mL; in the test with E. coli ATCC 10596 (setting [2]), 256 µg/mL (≈ 583 µM).

As for `CC(C)(C)NCc1ccc2cccc(NS(=O)(=O)c3ccc(C(F)(F)F)cc3)c2n1` [ZDR135, N-(2-((tert-Butylamino)methyl)quinolin-8-yl)-4-(trifluoromethyl)benzenesulfonamide], the MIC is 32 µg/mL (≈ 73.1 µM) in the test with S. aureus ATCC 6538 (ATCC6538, No Zinc); 64 µg/mL (≈ 146 µM) in the test with S. aureus ATCC 6538 (ATCC6538, Zinc (50 μM)); 128 µg/mL (≈ 293 µM) in the test with S. uberis ATCC 19436 (ATCC19436, No Zinc); 0.25 µg/mL (≈ 0.571 µM) in the test with S. uberis ATCC 19436 (ATCC19436, Zinc (50 μM)); greater than 256 µg/mL in the test with E. coli ATCC 10596 (setting [1]); greater than 256 µg/mL with E. coli ATCC 10596 (setting [2]).

Consider `CC(C)N(Cc1ccc2cccc(NS(=O)(=O)c3ccc(C(F)(F)F)cc3)c2n1)C(C)C` [ZDR136, N-(2-((Diisopropylamino)methyl)quinolin-8-yl)-4-(trifluoromethyl)benzenesulfonamide], for which the MIC is greater than 256 µg/mL with S. aureus ATCC 6538 (ATCC6538, No Zinc); greater than 256 µg/mL with S. aureus ATCC 6538 (ATCC6538, Zinc (50 μM)); greater than 256 µg/mL with S. uberis ATCC 19436 (ATCC19436, No Zinc); 8 µg/mL (≈ 17.2 µM) with S. uberis ATCC 19436 (ATCC19436, Zinc (50 μM)); greater than 256 µg/mL in the test with E. coli ATCC 10596 (setting [1]); greater than 256 µg/mL with E. coli ATCC 10596 (setting [2]).

Regarding `O=S(=O)(Nc1cccc2ccc(/C=N/OCc3ccccc3)nc12)c1ccc(C(F)(F)F)cc1` [ZDR137, (E)-N-(2-(((Benzyloxy)imino)methyl)quinolin-8-yl)-4-(trifluoromethyl)benzenesulfonamide], the MIC is greater than 256 µg/mL with S. aureus ATCC 6538 (ATCC6538, No Zinc); greater than 256 µg/mL with S. aureus ATCC 6538 (ATCC6538, Zinc (50 μM)); greater than 256 µg/mL in the test on S. uberis ATCC 19436 (ATCC19436, No Zinc); 0.125 µg/mL (≈ 0.257 µM) in the test with S. uberis ATCC 19436 (ATCC19436, Zinc (50 μM)); greater than 256 µg/mL in the test on E. coli ATCC 10596 (setting [1]); greater than 256 µg/mL with E. coli ATCC 10596 (setting [2]).
